Experimental data reported in patent publication US11731943B2, “Therapeutic compounds, compositions and methods of use thereof” (priority 2016, dated 2023).
Read-outs that look alike come from different tables or passages of the source.

Legend:
[1] = target: isolated recombinant JAK1 kinase domain (Homo sapiens (Human), UniProt P23458); assay: JAK1 enzyme assay (Caliper LabChip, Ki); type: biochemical
Protocol: (§1) JAK Enzyme Assays were carried out as follows:
(§2) The activity of the isolated recombinant JAK1 and JAK2 kinase domain was measured by monitoring phosphorylation of a peptide derived from JAK3 (Val-Ala-Leu-Val-Asp-Gly-Tyr-Phe-Arg-Leu-Thr-Thr, fluorescently labeled on the N-terminus with 5-carboxyfluorescein) using the Caliper LabChip® technology (Caliper Life Sciences, Hopkinton, Mass.). […] Reactions were incubated at 22° C. in 384-well polypropylene microtiter plates for 30 minutes and then stopped by addition of 25 μL of an EDTA containing solution (100 mM HEPES buffer (pH 7.2), 0.015% Brij-35, 150 mM EDTA), resulting in a final EDTA concentration of 50 mM. After termination of the kinase reaction, the proportion of phosphorylated product was determined as a fraction of total peptide substrate using the Caliper LabChip® 3000 according to the manufacturer's specifications. Ki values were then determined using the Morrison tight binding model (Morrison, J. F., Biochim. Biophys. Acta. 185:269-296 (1969); William, J. W. and Morrison, J. F., Meth. Enzymol., 63:437-467 (1979)) modified for ATP-competitive inhibition [Ki=Ki,app/(1+[ATP]/Km,app)].

[2] = target: isolated recombinant JAK2 kinase domain (Homo sapiens (Human), UniProt O60674); assay: JAK2 enzyme assay (Caliper LabChip, Ki); type: biochemical
Protocol: as §1
as §2, with “([…]” for “(Val-Ala-Leu-Val-Asp-Gly-Tyr-Phe-Arg-Leu-Thr-Thr,”, “specifications.” for “specifications. Ki values were then determined using the Morrison tight binding model (Morrison, J. F., Biochim. Biophys. Acta. 185:269-296 (1969); William, J. W. and Morrison, J. F., Meth. Enzymol., 63:437-467 (1979)) modified for ATP-competitive inhibition [Ki=Ki,app/(1+[ATP]/Km,app)].”

Chain of isolated recombinant JAK1 kinase domain (P23458 875-1153): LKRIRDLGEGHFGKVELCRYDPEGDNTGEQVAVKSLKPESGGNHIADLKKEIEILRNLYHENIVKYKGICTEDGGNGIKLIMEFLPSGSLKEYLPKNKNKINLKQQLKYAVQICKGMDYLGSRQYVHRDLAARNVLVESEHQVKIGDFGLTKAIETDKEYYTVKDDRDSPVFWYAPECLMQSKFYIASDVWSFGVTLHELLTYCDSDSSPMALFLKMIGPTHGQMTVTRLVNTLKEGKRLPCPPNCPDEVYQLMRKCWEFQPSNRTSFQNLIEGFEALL
Chain of isolated recombinant JAK2 kinase domain (O60674 849-1124): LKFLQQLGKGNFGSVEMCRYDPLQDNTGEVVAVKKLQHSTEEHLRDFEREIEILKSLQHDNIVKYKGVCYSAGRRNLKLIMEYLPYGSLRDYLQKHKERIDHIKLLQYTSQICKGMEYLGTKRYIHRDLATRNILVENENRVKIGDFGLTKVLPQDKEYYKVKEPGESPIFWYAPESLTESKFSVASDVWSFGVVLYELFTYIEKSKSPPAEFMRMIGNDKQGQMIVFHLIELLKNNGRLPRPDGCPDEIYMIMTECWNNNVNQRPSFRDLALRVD

Compound | Ki [1] [nM] | Ki [2] [nM] | Ki ([1]; read-out: JAK1 Ki) [nM]
N#CCC1(n2cc(C(N)=O)c(NC(=O)C3CC3)n2)CCC2(CC1)Oc1ccccc1O2 (racemic) [Example 34] | 24.8 | 276 | 
N#CCC1(n2cc(C(N)=O)c(NC(=O)C3CC3)n2)CCN(Cc2cccc(-c3ccccc3)c2)CC1 (racemic) [Example 37] | 34.6 | 268 | 
N#CCC1(n2cc(C(N)=O)c(NC(=O)C3CC3)n2)CCN(Cc2ccc(N3CCCCC3)cc2)CC1 (racemic) [Example 39] | 98.2 | > 319 | 
N#CC[C@]1(n2cc(C(N)=O)c(NC(=O)C3CC3)n2)CC[C@@H](N2CC(C(F)(F)F)C2)CC1 (single isomer, unassigned) [Example 7] |  | > 319 | > 562
N#CCC1(n2cc(C(N)=O)c(NC(=O)[C@H]3C[C@H]3C3CC3)n2)CCN(CC(F)(F)F)CC1 (stereo in doubt) [Example 176, 1-[4-(cyanomethyl)-1-(2,2,2-trifluoroethyl)-4-piperidyl]-3-[(2-cyclopropylcyclopropanecarbonyl)amino]pyrazole-4-carboxamide] |  | > 319 | 302
N#CCC1(n2cc(C(N)=O)c(NC(=O)[C@H]3C[C@@H]3C3CC3)n2)CCN(CC(F)(F)F)CC1 (stereo in doubt) [Example 177, 1-[4-(cyanomethyl)-1-(2,2,2-trifluoroethyl)-4-piperidyl]-3-[(2-cyclopropylcyclopropanecarbonyl)amino]pyrazole-4-carboxamide] |  | 226 | 18.7
CNC(=O)Nc1cn(C2(CC#N)CCN(CC(F)(F)F)CC2)nc1C(N)=O [Example 3, 1-(4-(Cyanomethyl)-1-(2,2,2-trifluoroethyl)piperidin-4-yl)-4-(3-methylureido)-1H-pyrazole-3-carboxamide] |  | 15.7 | 6.4
COC(=O)Nc1nn(C2(CC#N)CCN(CC(F)(F)F)CC2)cc1C(N)=O [Example 4, Methyl (4-carbamoyl-1-(4-(cyanomethyl)-1-(2,2,2-trifluoroethyl)piperidin-4-yl)-1H-pyrazol-3-yl)carbamate] |  | 34.5 | 8.2
N#CCC1(n2cc(C(N)=O)c(NC(=O)C3CC3)n2)CCC2(CC1)COC2 [Example 5, 1-(7-(Cyanomethyl)-2-oxaspiro[3.5]nonan-7-yl)-3-(cyclopropanecarboxamido)-1H-pyrazole-4-carboxamide] |  | 189 | 22.8
N#CCC1(n2cc(C(N)=O)c(NC(=O)C3CC3)n2)CCN(C(=O)Cc2ccccc2)CC1 [Example 18, 1-(4-(Cyanomethyl)-1-(2-phenylacetyl)piperidin-4-yl)-3-(cyclopropanecarboxamido)-1H-pyrazole-4-carboxamide] |  | 235 | 30.8
N#CCC1(n2cc(C(N)=O)c(NC(=O)C3CC3)n2)CCN(C(CO)c2ccccc2)CC1 (centres unmarked) [Example 19, 1-(4-(Cyanomethyl)-1-(2-hydroxy-1-phenylethyl)piperidin-4-yl)-3-(cyclopropanecarboxamido)-1H-pyrazole-4-carboxamide] | 69.3 | > 319 | 
N#CCC1(n2cc(C(N)=O)c(NC(=O)C3CC3)n2)CCN(CC(O)c2ccccc2)CC1 (centres unmarked) [Example 20, 1-(4-(cyanomethyl)-1-(2-hydroxy-2-phenylethyl)piperidin-4-yl)-3-(cyclopropanecarboxamido)-1H-pyrazole-4-carboxamide] | 447 | > 319 | 
CC(c1ccccc1)N1CCC(CC#N)(n2cc(C(N)=O)c(NC(=O)C3CC3)n2)CC1 (centres unmarked) [Example 22] |  | 151 | 37.4
CC(=O)Nc1nn(C2(CC#N)CCN(CC(F)(F)F)CC2)cc1C(N)=O [Example 24] |  | 76.7 | 35.6
N#CCC1(n2cc(C(N)=O)c(NC(=O)C3CC34CC4)n2)CCN(CC(F)(F)F)CC1 (centres unmarked) [Example 25] |  | > 319 | 81.2
N#CCC1(n2cc(C(N)=O)c(NC(=O)C3CC3(F)F)n2)CCN(CC(F)(F)F)CC1 (centres unmarked) [Example 26] |  | 203 | 11.5
N#CCC1(n2cc(C(N)=O)c(NC(=O)[C@H]3C[C@@H]3C(F)(F)F)n2)CCN(CC(F)(F)F)CC1 [Example 27] |  | 781 | 102
N#CCC1(n2cc(C(N)=O)c(NC(=O)[C@@H]3C[C@@H]3F)n2)CCN(CC(F)(F)F)CC1 [Example 28] |  | 30.9 | 12.1
N#CCC1(n2cc(C(N)=O)c(NC(=O)[C@H]3C[C@H]3F)n2)CCN(CC(F)(F)F)CC1 [Example 29] |  | 11.9 | 10.1
N#CCC1(n2cc(C(N)=O)c(NC(=O)[C@@H]3C[C@H]3F)n2)CCN(CC(F)(F)F)CC1 [Example 30] |  | 53.2 | 8.6
N#CCC1(n2cc(C(N)=O)c(NC(=O)[C@H]3CC34CCC4)n2)CCN(CC(F)(F)F)CC1 [Example 31] |  | 189 | 96.4
C[C@@H]1C[C@H]1C(=O)Nc1nn(C2(CC#N)CCN(CC(F)(F)F)CC2)cc1C(N)=O [Example 32] |  | 196 | 71.8
N#CCC1(n2cc(C(N)=O)c(NC(=O)C3CC3)n2)CCCCC1 [Example 33] |  | 76.5 | 15.6

Compound | Ki [1] [nM] | Ki [2] [nM] | Ki ([1]; read-out: JAK1 Ki) [nM]
CC(C)(C)OC(=O)N[C@H]1CC[C@](CC#N)(n2cc(C(N)=O)c(NC(=O)C3CC3)n2)CC1 [Example 35] | 20.2 | 275 | 
CC(C)(C)OC(=O)N[C@H]1CC[C@@](CC#N)(n2cc(C(N)=O)c(NC(=O)C3CC3)n2)CC1 [Example 36] | > 562 | > 319 | 
N#CCC1(n2cc(C(N)=O)c(NC(=O)C3CC3)n2)CCN(Cc2ccccc2-c2ccccc2)CC1 [Example 38] |  | 107 | 8.1
N#CCC1(n2cc(C(N)=O)c(NC(=O)C3CC3)n2)CCN(Cc2ccccc2)CC1 [Example 40] |  | 96.7 | 7.9
COc1ccccc1CN1CCC(CC#N)(n2cc(C(N)=O)c(NC(=O)C3CC3)n2)CC1 [Example 41] |  | > 319 | 53.8
COc1cccc(CN2CCC(CC#N)(n3cc(C(N)=O)c(NC(=O)C4CC4)n3)CC2)c1 [Example 42] |  | 94.9 | 7.8
COc1ccc(CN2CCC(CC#N)(n3cc(C(N)=O)c(NC(=O)C4CC4)n3)CC2)cc1 [Example 43] |  | 170 | 25.8
CS(=O)(=O)Nc1ccccc1CN1CCC(CC#N)(n2cc(C(N)=O)c(NC(=O)C3CC3)n2)CC1 [Example 44] |  | 174 | 27.6
CS(=O)(=O)Nc1ccc(CN2CCC(CC#N)(n3cc(C(N)=O)c(NC(=O)C4CC4)n3)CC2)cc1 [Example 46] |  | 284 | 41.4
N#CCC1(n2cc(C(N)=O)c(NC(=O)C3CC3)n2)CCN(Cc2ccccc2OC(F)(F)F)CC1 [Example 47] |  | 250 | 34.1
N#CCC1(n2cc(C(N)=O)c(NC(=O)C3CC3)n2)CCN(Cc2cccc(OC(F)(F)F)c2)CC1 [Example 48] |  | 189 | 27.7
N#CCC1(n2cc(C(N)=O)c(NC(=O)C3CC3)n2)CCN(Cc2ccc(OC(F)(F)F)cc2)CC1 [Example 49] |  | 190 | 23.3
N#CCC1(n2cc(C(N)=O)c(NC(=O)C3CC3)n2)CCN(Cc2ccccc2Br)CC1 [Example 50] |  | 66.4 | 6.2
N#CCC1(n2cc(C(N)=O)c(NC(=O)C3CC3)n2)CCN(Cc2cccc(Br)c2)CC1 [Example 51] |  | 53.7 | 6.5
N#CCC1(n2cc(C(N)=O)c(NC(=O)C3CC3)n2)CCN(Cc2ccccc2I)CC1 [Example 53] |  | 101 | 7.1
N#CCC1(n2cc(C(N)=O)c(NC(=O)C3CC3)n2)CCN(Cc2cccc(I)c2)CC1 [Example 54] |  | 102 | 10.7
N#CCC1(n2cc(C(N)=O)c(NC(=O)C3CC3)n2)CCN(Cc2cccc(Cl)c2)CC1 [Example 59] |  | 35.9 | 4.7
N#CCC1(n2cc(C(N)=O)c(NC(=O)C3CC3)n2)CCN(Cc2ccccc2C(F)(F)F)CC1 [Example 61] |  | 118 | 8.3
N#CCC1(n2cc(C(N)=O)c(NC(=O)C3CC3)n2)CCN(Cc2cccc(C(F)(F)F)c2)CC1 [Example 62] |  | 285 | 27.6
N#CCC1(n2cc(C(N)=O)c(NC(=O)C3CC3)n2)CCN(Cc2ccc(C(F)(F)F)cc2)CC1 [Example 63] |  | 134 | 14.4
N#CCC1(n2cc(C(N)=O)c(NC(=O)C3CC3)n2)CCN(Cc2cccc(C#N)c2)CC1 [Example 65] |  | 123 | 13.7
N#CCC1(n2cc(C(N)=O)c(NC(=O)C3CC3)n2)CCN(Cc2cccc(SC(F)(F)F)c2)CC1 [Example 67] |  | > 319 | 100
N#CCC1(n2cc(C(N)=O)c(NC(=O)C3CC3)n2)CCN(Cc2ccc(SC(F)(F)F)cc2)CC1 [Example 68] |  | > 319 | 39
